Here are results for one compound from the NIST ThermoML archive (doi:10.1016/j.tca.2018.05.017).

Numbers after ± are expanded uncertainties.

The conditions of the data set: Crystal; DTA.

Consider `CCCCCCCC[NH+](CCCCCCCC)CCCCCCCC.[Cl-]` [trioctylammonium chloride], for which the Normal melting temperature was 72.20 ± 5 °C.
